Data on one compound can be found in patent EP4389106A1, “METHOD OF PREPARATION OF LIPOSOMAL C[…] […] AND LIPOSOMAL C[…] […]” (Aero-Bw K. Domagala Sp. Jawna, priority 2022, dated 2024).

Values joined by “and” are separate entries in the source; they are usually repeats but may differ in a detail not shown here. Equal values may be shown once.

The data set concerns Salmonella typhimurium TA98. Description: Ames test, strain TA98 (reading frame shift). The note with it: positive control at 2 µg/mL. Format: cell-based.

For the compound `O=[N+]([O-])c1ccc2c(c1)Cc1ccccc1-2` [Extract 2-NF, 2-nitrofluorene], the “MOI (Multiplicity of induction compared to baseline)” value was 6.9 and 5.6.
